Read-outs that look alike come from different tables or passages of the source.
How the values were obtained:
[1] = biological target: T1, 5HT1A receptors (Rattus norvegicus, UniProt P19327); assay: Drug discrimination (DD) 8-OH-DPAT; format: in vivo, rat (male Wistar); set-up: from tissue; host or cells: whole living male Wistar rats (endogenous receptor); conditions: rat, sc
T1 sequence (P19327 1-422): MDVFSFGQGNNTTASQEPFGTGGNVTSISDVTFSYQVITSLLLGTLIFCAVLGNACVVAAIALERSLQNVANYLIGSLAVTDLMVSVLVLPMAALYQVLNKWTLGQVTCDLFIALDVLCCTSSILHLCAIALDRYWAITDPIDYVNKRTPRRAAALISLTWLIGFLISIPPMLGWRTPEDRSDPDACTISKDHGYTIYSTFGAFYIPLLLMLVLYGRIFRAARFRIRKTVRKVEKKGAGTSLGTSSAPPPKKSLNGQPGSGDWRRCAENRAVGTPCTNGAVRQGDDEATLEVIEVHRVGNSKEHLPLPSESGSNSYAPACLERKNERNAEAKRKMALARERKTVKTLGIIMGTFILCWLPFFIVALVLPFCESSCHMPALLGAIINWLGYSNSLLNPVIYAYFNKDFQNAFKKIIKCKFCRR
Experimental: (§1) The tests were carried out using male Wistar rats weighing 200 to 220 g having free access to their food and to their drinking water in standard cages.
Male rats are maintained at 85% of their normal body weight by means of food restriction. In soundproofed chambers the animals are trained to press a pedal to obtain food according to an FR10 procedure (Fixed Ratio 10; the food is supplied to the rat when it has pressed the lever 10 times).
Daily sessions of 15 minutes are preceded by an injection of solvent or of the training drug (0.31 mg/kg of 8-OH-DPAT, j.p.). The animal receives a pellet of food after pressing 10 times on the "solvent" or "drug" pedal according to the compound administered before the session.
After the learning period the animals are tested twice a week (Wednesday and Friday). On the other three days training sessions are carried out.
On the training days the rats are given either solvent or 8-OH-DPAT 15 minutes before being tested.
On the test days the rats receive the chemical substance 60 minutes before the session.
The capacity of the chemical substance administered to induce a response (pressing on the "solvent" or "drug" (8-OH-DPAT ) lever ) is recorded.
7 animals chosen at random are used for each substance and for each dose. During the test period, the lever on which the rat first presses 10 times is determined as the lever chosen--a food pellet is then delivered. That selected lever will be reinforced by the delivery of food up to the end of the test session. The percentage of animals selecting the "drug" lever at a particular dose is calculated. In addition, the total number of responses carried out on the two levers is expressed as a percentage of the number of responses carried out on the "solvent" lever obtained on the occasion of a preceding training session.
(§2) The doses of the compounds tested are all expressed in base terms. Unless specified otherwise, all of the compounds were dissolved in sterile water (to which if necessary a few drops of lactic acid were added) and administered at a volume of 1 ml/kg s.c.

[2] = system: 5HT1A receptor; assay: Overall in vivo agonist/antagonist behaviour at 5HT1A receptors; set-up: species or system rat (male Wistar); conditions: Tables 1 and 2
[3] = biological target: T1, 5HT1A receptors; assay: Corticosterone secretion (CS), agonist (alone) and antagonist (vs 8-OH-DPAT); format: in vivo, rat (male Wistar); set-up: from tissue; host or cells: whole living male Wistar rats (endogenous receptor); conditions: for CS secretion MED alone: agonist test, compound alone s.c., minimum effective dose vs control; for ED50: rat, sc, read-out: CS secretion ID50 (95% CL) + DPAT
Experimental: as §1
(§3) The animals are isolated individually for the tests for hypothermia, corticosterone secretion and flat body posture, or combined in groups of three for the tailflick test.
(§4) The compounds to be studied were administered by the subcutaneous route (s.c.) 60 minutes before the beginning of the test, that is to say 30 minutes before the solvent (agonist responses) or the 8-OH-DPAT (antagonist responses).
(§5) In all of the tests the solvent is used in parallel as a control. The animals were left to rest in their cage during the period between the injections and the evaluation. For the agonist studies, the solvent was administered at 1 ml/kg s.c. 30 minutes before the beginning of the test. For the antagonist studies, doses of 8-OH-DPAT that induce sub-maximal responses were chosen, that is doses of 0.63, 0.16, 0.16 and 0.16 mg/kg s.c. for, respectively, the tail flick test, flat body posture test, corticosterone secretion test and hypothermia test.
(§6) The same animals were used to evaluate the influence of the compounds studied on FBP and on the determination of the plasma concentration of CS. All of the tests were carried out in the morning between 10.30 and 12.300 that is to say when the circadian levels of CS are lowest.
(§7) The presence of FBP is defined by a characteristic posture of the animal. That posture is in the ventral decubitus position with the posterior limbs clearly extended. 5 minutes after the observation of FBP, the animals are decapitated and the blood from the trunk is collected in cooled tubes containing 50 μl of a 10% EDTA solution. After centrifugation at 4000 revs/min, the plasma is removed and stored at -30° C. until determination.
The CS was determined by a radio-competitive determination for a plasma protein that binds the CS: transcortine. The latter is obtained from a monkey serum. The separation of the CS-transcortine complexes from the free CS was carried out by means of a solution of dextran and active carbon. The detection limit was 50 pg/tube. The intra- and inter-experiment variations in determination were 5 and 15% respectively [cf Rivet J. M. et al, Eur. J. Pharmacol., 183,634-635 (1990)].
The CS base rates in the plasma never being zero, the following formula was used to calculated the percentage inhibition of plasma CS induced by 8-OH-DPAT: [formula]
(§8) In general, after variance analysis, the results are subjected to the Dunett test. The results are taken as significant if p <0.05.
as §2

[4] = biological target: T1, 5HT1A receptors; assay: Spontaneous tail flick (STF) test, agonist (alone) and antagonist (vs 8-OH-DPAT); format: in vivo, rat (male Wistar); set-up: from tissue; host or cells: whole living male Wistar rats (endogenous receptor)
Experimental: as §1, §3, §4, §5
The tail flicks were determined on the animals in horizontal opaque plastics cylinders with the tail of the animals hanging freely on the edge of the laboratory work bench. After allowing 5 minutes for adaptation, the number of movements made in 5 minutes was recorded. An STF is defined as being an elevation of the tail to a level higher than that of the axis of the body [Millan M. J. et al., J. Pharmacol. Exp. Ther., 256, 973-982 (1990)].
as §8, §2

[5] = biological target: T1, 5HT1A receptors; assay: Flat body posture (FBP), agonist (alone) and antagonist (vs 8-OH-DPAT); format: in vivo, rat (male Wistar); set-up: from tissue; host or cells: whole living male Wistar rats (endogenous receptor); conditions: for ED50: rat, sc
Experimental: as §1, §3, §4, §5, §6
25 minutes after the treatment (that is to say 5 minutes before decapitation) the animals are observed in their cages and the presence or absence of FBP is noted.
as §7, §8
For the dose-response for the induction and inhibition of FBP, the ED50 values (doses at which 50% of the animals show a response) were calculated by the Litchfield and Wilcoxon method.
as §2

[6] = biological target: T1, 5HT1A receptors; assay: Body temperature / hypothermia, agonist (alone) and antagonist (vs 8-OH-DPAT); format: in vivo, rat (male Wistar); set-up: from tissue; host or cells: whole living male Wistar rats (endogenous receptor); conditions: for ED50: rat, sc, read-out: HYPOTHERMIA ID50 (95% CL) + DPAT
Experimental: as §1, §3, §4, §5
The rats are immobilised and a lubricated digital thermometer (Termistroprobe of Testotherm, Basle, Switzerland) is inserted into the rectum to a depth of 5 cm. 30 seconds after insertion, the temperature is read on a digital scale. The percentage inhibition is calculated using the formula given above.
as §8, §2

[7] = biological target: T1, 5HT1A receptors; assay: In vitro binding test, 5HT1A receptors ([3H]-8-OH-DPAT, hippocampus membranes); set-up: The hippocampus of the brains of decapitated rats was immediately frozen; from tissue; host or cells: hippocampus membranes of male Wistar rats; species or system rat (male Wistar)
Experimental: as §1
The hippocampus of the brains of decapitated rats was immediately frozen on solid carbon dioxide and then kept at -80° C. until preparation of the membranes. The tissue was homogenised at 4° C. in the appropriate buffer using a Polytron (Brinkman Instruments, Lucerne, Switzerland) and centrifuged at 20,000 revs/min.
Incubation was carried out for 30 minutes at 25° C. Non-specific binding was established by […] of 5HT. The tests were terminated by rapid filtration using a Brandel harvester through glass fibre filters pretreated with 0.1% polyethylene imine.
The IC50 values were determined in accordance with process 8 of Tallarida R. J. and Murray R. B., Manual of Pharmacological calculations with computer programs, Springer Verlag, New York, (1987).
The pKi was calculated in accordance with the following formula: [formula] wherein [L] is the concentration of the hot ligand (^[3] H-8-OH-DPAT, 0.4 nM) and Kd is the apparent dissociation constant determined from the saturation experiments.
The substances studied were dissolved in the incubation buffer.
Binding of 5HT1A receptors

[8] = agonist test, compound alone s.c., minimum effective dose vs control
[9] = antagonist test, s.c., vs 8-OH-DPAT 0.16 mg/kg s.c.
[10] = rat hippocampus, [3H]-8-OH-DPAT 0.4 nM, 30 min at 25° C, read-out: AFFINITY (pKi) (converted)
[11] = agonist test, compound alone s.c., read-out: FBP ED50 (95% CL) alone
[12] = antagonist test, s.c., vs 8-OH-DPAT 0.16 mg/kg s.c., read-out: FBP ID50 (95% CL) + DPAT

| SMILES | CS secretion MED alone [3] [mg/kg] | Ki [7] [nM] | ED50 [3, 9] [mg/kg] | Ki [7, 10] [nM] | ED50 [5, 11] [mg/kg] | ED50 [5, 12] [mg/kg] | HYPOTHERMIA MED alone [6, 8] [mg/kg] | ED50 [6, 9] [mg/kg] | other results |
| --- | --- | --- | --- | --- | --- | --- | --- | --- | --- |
| O=C1CC2(CCCC2)CC(=O)N1CCCCN1CCN(c2ncccn2)CC1 [buspirone, reference compound] | 2.5 | – | – | – | – | – | – | – | ED50 ([1]; read-out: DD 8-OH-DPAT ED50 (95% CL) alone): 1.35 mg/kg; ED50 ([1]; read-out: DD 8-OH-DPAT ID50 (95% CL) + DPAT): > 2.5 mg/kg; behaviour at 5HT1A receptor (agonist/antagonist, in words) [2]: agonist behaviour; ED50 [3]: > 10 mg/kg; % MPA (% maximum possible antagonism), CS secretion ([3]; vs 8-OH-DPAT 0.16 mg/kg s.c.): 0%; STFs MED alone [4, 8]: > 40.0 mg/kg; % MPA (% maximum possible antagonism), STFs ([4]; vs 8-OH-DPAT 0.63 mg/kg s.c.): 86%; ED50 ([5]; read-out: FBP ID50 (95% CL) + DPAT): > 10 mg/kg; % MPA (% maximum possible antagonism), FBP ([5]; vs 8-OH-DPAT 0.16 mg/kg s.c.): 0%; H[…] alone [6, 8]: 2.5 mg/kg; ED50 [6]: > 10 mg/kg; % MPA (% maximum possible antagonism), HYPOTHERMIA ([6]; vs 8-OH-DPAT 0.16 mg/kg s.c.): 0% |
| c1cc2c(c(N3CCN(CCc4csc5ccccc45)CC3)c1)OCCO2 [Example 7, 4-(Benzodioxan-5-yl)-1-[2-(benzo[b]thiophen-3-yl)ethyl]piperazine] | – | 0.724 | – | – | – | – | – | – | – |
| c1cc2c(c(N3CCN(CCc4cccc5ccccc45)CC3)c1)OCCO2 [Example 5, 4-(Benzodioxan-5-yl)-1-[2-(naphth-1-yl)ethyl]piperazine] | > 2.5 | – | 2.5 | 1.29 | > 2.5 | < 2.5 | > 10.0 | 0.32 | – |
| c1cc2c(c(N3CCN(CC4Cc5ccsc5C4)CC3)c1)OCCO2 (racemic) [Example 3] | > 10.0 | – | 1.56 | 1.7 | < 10 | 1.6 | > 2.5 | 0.5 | % MPA (% maximum possible antagonism), CS secretion ([3]; vs 8-OH-DPAT 0.16 mg/kg s.c.): 100%; ED50 ([4]; rat, sc, antagonist test, s.c., vs 8-OH-DPAT 0.63 mg/kg s.c., read-out: STFs ID50 (95% CL) + DPAT): < 0.16 mg/kg; % MPA (% maximum possible antagonism), FBP ([5]; vs 8-OH-DPAT 0.16 mg/kg s.c.): 100% |
| c1csc(CCN2CCN(c3cccc4c3OCCO4)CC2)c1 [Example 13, 4-(Benzodioxan-5-yl)-1-[2-(thiophen-2-yl)ethyl]piperazine] | – | 1.1 | – | – | – | – | – | – | – |
| c1cc2c(c(N3CCN(CCc4cc5ccsc5s4)CC3)c1)OCCO2 [Example 8, 4-(Benzodioxan-5-yl)-1-[2-(thieno[2,3-b]thiophen-2-yl)ethyl]piperazine] | – | 0.589 | – | – | – | – | – | – | – |
| c1cc2c(c(N3CCN(CCc4ccc5ccccc5c4)CC3)c1)OCCO2 [Example 6, 4-(Benzodioxan-5-yl)-1-[2-(naphth-2-yl)ethyl]piperazine] | – | – | – | 1.02 | – | – | – | – | – |
| c1cc2c(c(N3CCN(CCc4ccsc4)CC3)c1)OCCO2 [Example 11, 4-(Benzodioxan-5-yl)-1-[2-(thiophen-3-yl)ethyl]piperazine] | > 2.5 | 1.2 | 2.5 | – | > 2.5 | < 2.5 | > 2.5 | 0.16 | – |
| c1cc2c(c(N3CCN(CCCCc4ccsc4)CC3)c1)OCCO2 [Example 4, 4-(Benzodioxan-5-yl)-1-[4-(thiophen-3-yl)butyl]piperazine] | – | – | – | 0.38 | – | – | – | – | – |
| c1ccc(CCCN2CCN(c3cccc4c3OCCO4)CC2)cc1 [Example 12, 4-(Benzodioxan-5-yl)-1-(3-phenylpropyl)piperazine] | > 2.5 | – | 2.5 | 1.7 | > 2.5 | < 2.5 | > 2.5 | 0.63 | – |

Source: patent US5464834A, “N-substituted N'-heterobicyclic piperazines having pharmaceutical activity” (Adir et Compagnie, priority 1992, dated 1995)
